Reference: patent US20040110848A1, “Method and kit for treating cancer” (priority 2002, published 2004)

Key:
[1] = test system: 4E-BP1 (Ser65); assay: Western blot of phospho-4E-BP1 (Ser65) in prostate cancer cells; format: cell-based, human; details: both prostate cell lines (PC-3, DU145); perillyl alcohol 400 μM 16 hr, genistein 40 μM 4 hr, LY 294002 10 μM 4 hr
Method: (§1) We treated PC-3, DU145, and Caco-2 (colon adenocarcinoma) cells with lovastatin (LVT), perillyl alcohol (PA), the P13 kinase inhibitor, LY294002 (LY), or genistein (Gen). PC-3, DU145, and Caco-2 cells were plated in RPMI plus 10% FBS and cells allowed to grow for 24 hr. Medium was supplemented with lovastatin (1 μM for 16 hr), perillyl alcohol (400 μM for 16 hr), genistein (40 μM for 4 hr), or LY 294002 (10 μM for 4 hr). Cells were lysed in RIPA buffer and protein extracts quantitated. Aliquots (100 μg) were electrophoresed and transferred to PVDF membranes. […] The eIF4E (FIG. 6, top panel) and 4E-BP1 (FIG. 6, middle panel) were detected using antibodies specific for eIF4E and phospho-4E-BP1 (Ser65). Specific proteins were detected by ECL using a Kodak Image Station.
(§2) Referring now to FIG. 6 which depicts a Western blot analysis of eIF4E, 4E-BP1 (Ser65) and Rab3A from various cells. […] The same blot was reprobed with phospho-4E-BP1 (Ser65). […] Rab3A levels were also compared in the highly metastatic PC-3 cells, DU145 and in Caco-2, which is considered to have low metastatic potential.

[2] = test system: MMP-9; assay: Gelatin zymography of conditioned media, MMP-9; format: cell-based, human; details: for MMP-9 Count: perillyl alcohol 400 μM, 16 hr
Text: (§3) Since the effects of isoprenoids with or without genistein on prostate cancer metastasis had not been explored prior to the present invention, the effects of genistein, perillyl alcohol, and γ-tocotrienol were studied on MMP-9 and MMP-2 activity. MMP activity as described in the background has been linked in part to the Ras/ERK pathway and may also be involved in a second unidentified pathway that is ERK-independent. Therefore, we employed gelatin zymography to study effects of isoprenoids on MMP-9 and MMP-2 activation and secretion.
(§4) Referring now to FIG. 8. which depicts a gelatin zymogram showing the effects of perillyl alcohol (PA), genistein (Gen), or γ-tocotrienol (g-Toco) on MMP activity. The results of FIG. 8 are quantified in Table 2. Cells were grown in 100 mm culture plates to approximately 80% confluency. Prior to experimental treatments, cells were washed extensively in serum-free medium and then incubated for […] in serum-free media with Mito plus® serum supplement (Becton-Dickinson) in the absence or presence of isoprenoids. Conditioned media were then collected from PC-3 and DU145 cells that were incubated in the absence or presence of genistein (20 μM), perillyl alcohol (400 μM), or γ-tocotrienol (20 μM) for 16 hr and clarified by centrifugation. MMP activity in conditioned media was analyzed by mixing aliquots with SDS sample loading buffer without β-mercaptoethanol (non-reducing). Samples were electrophoresed on a 10% polyacrylamide (29:1) separating gel containing 0.1% (w/v) gelatin. Gels were incubated in developing buffer at 37° C. overnight. Enzyme activity was observed after staining with Coomassie Blue as clear bands on a blue background of undigested gelatin. Band density was then normalized to cell number prior to- and post-treatment (See FIG. 8).

[3] = test system: MMP-2; assay: Gelatin zymography of conditioned media, MMP-2; format: cell-based, human; details: for MMP-2 Count: perillyl alcohol 400 μM, 16 hr
Text: as §3, §4

[4] = test system: PC-3 prostate cancer cells; assay: Membrane Invasion Culture System (MICS); format: cell-based, human; details: for percent invaded: PC-3, 24 hr, MATRIGEL coated membrane, Perillyl Alcohol 400 μM, Genistein 20 μM, γ-tocotrienol 20 μM, control 12.5%; for invasive ability of PC-3 cells: PC-3, MICS
Text: The Membrane Invasion Culture System (MICS) represents a direct measurement of intracellular reorganization and invasive capability of cancer cell lines. The MICS protocol was used to quantitate the effects of isoprenoid treatment on the invasive potential of PC-3 prostate cancer cells. Polycarbonate membranes (10 μm pores) were coated with a basement membrane matrix (MATRIGEL™, BD Biosciences) and placed inside MICS chambers. Both upper and lower chambers were filled with serum-free RPMI 1640 containing Mito plus™. Cells were seeded onto the upper wells at 1×10^5 cells/well. After 24 hr, cells that had invaded through the membrane were collected and counted. Invasion rates were calculated as the percent cells invading the matrix coated membrane compared to total number of cells seeded (Table 3).

[5] = test system: DU145; assay: In vitro collagen gel contraction assay, DU145; format: cell-based, human; details: Perillyl Alcohol 400 μM, Genistein 20 μM, control 3.0
Method: (§5) An in vitro collagen gel contraction assay was used to evaluate the effects of isoprenoids on biomechanical tumor cell matrix remodeling from various prostate cancer cell lines. Collagen gel suspensions for each tumor cell line were prepared by mixing a 250 μl suspension of 3×10^6 cells/ml with 250 μl of undiluted rat tail collagen type I (BD Biosciences). The resultant collagen gel suspensions were dripped onto 35 mm petri dishes containing 3 ml RPMI 1640 in 10% FBS to prevent adhesion of collagen to the dish. Collagen gel suspensions were allowed to polymerize for one hr. Isoprenoid treatments were added 24 hr after exchanging culture medium and were removed 24-48 hr post treatment.

[6] = test system: PC-3; assay: In vitro collagen gel contraction assay, PC-3; format: cell-based, human; details: for Diameter (cm) of collagen gel: PC-3, Perillyl Alcohol 400 μM, Genistein 20 μM, control 2.0
Method: as §5
Table 4 summaries the effects on collagen gel ball diameters for both PC3 and DU145 as a result from being exposed to various isoprenoids during the in vitro collagen gel contraction assay.

[7] = test system: androgen-responsive prostate tumor cell line LNCaP; details: cited from earlier work
[8] = test system: human prostate cancer cells; details: human prostate cancer cells in culture; cited from earlier work
[9] = test system: HMG-CoA reductase; assay: Rate of HMG-CoA reductase synthesis (35S-labeled immunoprecipitable reductase) in lovastatin-treated C100 cells; format: cell-based, Syrian Hamster; details: for reductase synthesis lowered by: lovastatin treated C100 cells
Method: (§6) As discussed above, the end products of plant mevalonate metabolism, i.e., isoprenoids, suppress mammalian HMG-CoA reductase. To characterize the level at which plant-derived isoprenoids regulate reductase activity, lovastatin treated Syrian Hamster C100 cells were incubated with mevalonate or an isoprenoid (limonene, perillyl alcohol, or geraniol). These monoterpenes were selected because they are representative of isoprenoids found in a wide variety of plants, fruits and grains. C100 cells in which endogenous mevalonate biosynthesis is blocked with lovastatin have been a useful system to evaluate the effects of oxysterols and mevalonate-derived isoprenoids, either alone or in combination, on HMG-CoA reductase levels and rates of synthesis or degradation. […] The effects of the three isoprenoids on reductase degradation were also determined by measuring the half-life of HMG-CoA reductase.

[10] = test system: HMG-CoA reductase mRNA; assay: HMG-CoA reductase mRNA levels in lovastatin-treated C100 cells; format: cell-based, Syrian Hamster; details: for reductase mRNA level lowered by / impact on HMG-CoA reductase mRNA levels: lovastatin treated C100 cells
Method: as §6

[11] = test system: HMG-CoA reductase; assay: HMG-CoA reductase degradation (half-life) in lovastatin-treated SV28 cells; format: cell-based
Method: as §6

[12] = test system: Rab3A; assay: Western blot of Rab3A; format: cell-based, human; details: DU145 cells; perillyl alcohol 400 μM 16 hr
Method: as §1, §2

[13] = DU145 conditioned media, genistein 20 μM (control 30.71), γ-tocotrienol 20 μM (control 23.5)
[14] = PC-3 conditioned media, genistein 20 μM (control 46.95), γ-tocotrienol 20 μM (control 18.14)
[15] = DU145 conditioned media, genistein 20 μM (control 15.05), γ-tocotrienol 20 μM (control 5.5)
[16] = PC-3 conditioned media, genistein 20 μM (control 11.85), γ-tocotrienol 20 μM (control 18.14)

Row | Structure (SMILES) | MMP-9 activity ([2]; DU145 cells) | MMP-9 Count [2, 13] | MMP-9 activity ([2]; PC-3 cells) | MMP-9 Count [2, 14] | MMP-2 Count [3, 15] | MMP-2 Count [3, 16] | percent invaded [4] | invasive ability of PC-3 cells [4] | reductase synthesis lowered by [9] | other results
1 | O=c1c(-c2ccc(O)cc2)coc2cc(O)cc(O)c12 [Genistein, genistein] | exhibited no similar effect | 47.64 | nearly ninety percent | 5.25 | 23.54 | 4.25 | 0% | inhibited the invasive ability of PC-3 cells, with genistein exhibiting the greatest effect | – | 4E-BP1 Ser65 phosphorylation (Western blot) [1]: did not appear to affect Ser65 phosphorylation of the upper band but reduced phosphorylation of the lower of the two bands; Diameter (cm) of collagen gel [5]: 3.2 cm; Diameter (cm) of collagen gel [6]: 3.5 cm; concentration shown to induce apoptosis [7]: above 20 μM; concentration inhibiting growth [8]: above 50 μmol
2 | CC(C)=CCC/C(C)=C/CO [Geraniol, geraniol] | – | – | – | – | – | – | – | – | 98% | reductase mRNA level lowered by [10]: 64%; effect on half-life of reductase [11]: Neither limonene nor geraniol affected the half-life
3 | CC[C@H](C)C(=O)O[C@H]1C[C@@H](C)C=C2C=C[C@H](C)[C@H](CC[C@@H]3C[C@@H](O)CC(=O)O3)[C@H]21 [Lovastatin, lovastatin, reference compound] | – | – | – | – | – | – | – | – | – | Rate of Synthesis (reductase) ([9]; percentage (mean ± S.D.) of lovastatin-treated C100 cells set at 100%, 1 hr 35S labeling, mevalonate 10 mM, limonene 5 mM, perillyl alcohol 0.7 mM, geraniol 0.4 mM): 100 ± 15%; mRNA Levels (reductase) ([10]; percentage of lovastatin-treated cells set at 100%, corrected to RP S17 mRNA, mevalonate 10 mM, limonene 5 mM, perillyl alcohol 0.7 mM, geraniol 0.4 mM): 100 ± 5%
4 | CC(O)(CCO)CC(=O)O (stereo not shown) [Mevalonate, mevalonate, reference compound] | – | – | – | – | – | – | – | – | 65% | reductase mRNA level lowered by [10]: 65%; HMG-CoA reductase half-life decreased by [11]: approximately 60%
5 | C=C(C)[C@@H]1CC=C(CO)CC1 [Perillyl Alcohol, perillyl alcohol] | nearly extinguished all MMP-9 activity | 0.09 | exhibited no similar effect | 72.65 | 10.63 | 6.73 | 5% | inhibited the invasive ability | 89% | impact on HMG-CoA reductase mRNA levels [10]: neither limonene nor perillyl alcohol had a significant impact; 4E-BP1 Ser65 phosphorylation (Western blot) [1]: reduced Ser65 phosphorylation; Rab3A protein level (Western blot) [12]: further reduce the levels of Rab3A protein; Diameter (cm) of collagen gel [5]: 3.75 cm; extracellular matrix remodeling of gel ball ([6]; PC3 cells, FIG. 9): retards matrix remodeling; Diameter (cm) of collagen gel [6]: 3.2 cm
6 | C=C(C)[C@H]1CC=C(C)CC1 [limonene] | – | – | – | – | – | – | – | – | 70% | impact on HMG-CoA reductase mRNA levels [10]: neither limonene nor perillyl alcohol had a significant impact; effect on half-life of reductase [11]: Neither limonene nor geraniol affected the half-life
7 | CC(C)=CCC/C(C)=C/CC/C(C)=C/CC[C@]1(C)CCc2cc(O)c(C)c(C)c2O1 [γ-tocotrienol] | modest monotonic decreases | 16.5 | modest monotonic decreases | 27.4 | −2.2 | 15.3 | 7% | inhibited the invasive ability | – | MMP-2 activity ([3]; DU145 cells): modest monotonic decreases; MMP-2 activity ([3]; PC-3 cells): modest monotonic decreases
